Measured values reported in ChEMBL document CHEMBL5584296, “Discovery of Novel Pyrimidine-Based Derivatives as Nav1.2 Inhibitors with Efficacy in Mouse Models of Epilepsy” (J Med Chem, 2024).

What was measured:
[1] = target: T1, Sodium channel protein type 2 subunit alpha (Homo sapiens, UniProt Q99250); experiment: Inhibition of human Nav1.2 expressed in HEK293 cells assessed as test to control ratio at 1 uM measured after 5 mins by whole cell voltage clamp electrophysiological analysis; assay type: cell-based
Target sequence in this assay (Q99250 whole entry, looked up): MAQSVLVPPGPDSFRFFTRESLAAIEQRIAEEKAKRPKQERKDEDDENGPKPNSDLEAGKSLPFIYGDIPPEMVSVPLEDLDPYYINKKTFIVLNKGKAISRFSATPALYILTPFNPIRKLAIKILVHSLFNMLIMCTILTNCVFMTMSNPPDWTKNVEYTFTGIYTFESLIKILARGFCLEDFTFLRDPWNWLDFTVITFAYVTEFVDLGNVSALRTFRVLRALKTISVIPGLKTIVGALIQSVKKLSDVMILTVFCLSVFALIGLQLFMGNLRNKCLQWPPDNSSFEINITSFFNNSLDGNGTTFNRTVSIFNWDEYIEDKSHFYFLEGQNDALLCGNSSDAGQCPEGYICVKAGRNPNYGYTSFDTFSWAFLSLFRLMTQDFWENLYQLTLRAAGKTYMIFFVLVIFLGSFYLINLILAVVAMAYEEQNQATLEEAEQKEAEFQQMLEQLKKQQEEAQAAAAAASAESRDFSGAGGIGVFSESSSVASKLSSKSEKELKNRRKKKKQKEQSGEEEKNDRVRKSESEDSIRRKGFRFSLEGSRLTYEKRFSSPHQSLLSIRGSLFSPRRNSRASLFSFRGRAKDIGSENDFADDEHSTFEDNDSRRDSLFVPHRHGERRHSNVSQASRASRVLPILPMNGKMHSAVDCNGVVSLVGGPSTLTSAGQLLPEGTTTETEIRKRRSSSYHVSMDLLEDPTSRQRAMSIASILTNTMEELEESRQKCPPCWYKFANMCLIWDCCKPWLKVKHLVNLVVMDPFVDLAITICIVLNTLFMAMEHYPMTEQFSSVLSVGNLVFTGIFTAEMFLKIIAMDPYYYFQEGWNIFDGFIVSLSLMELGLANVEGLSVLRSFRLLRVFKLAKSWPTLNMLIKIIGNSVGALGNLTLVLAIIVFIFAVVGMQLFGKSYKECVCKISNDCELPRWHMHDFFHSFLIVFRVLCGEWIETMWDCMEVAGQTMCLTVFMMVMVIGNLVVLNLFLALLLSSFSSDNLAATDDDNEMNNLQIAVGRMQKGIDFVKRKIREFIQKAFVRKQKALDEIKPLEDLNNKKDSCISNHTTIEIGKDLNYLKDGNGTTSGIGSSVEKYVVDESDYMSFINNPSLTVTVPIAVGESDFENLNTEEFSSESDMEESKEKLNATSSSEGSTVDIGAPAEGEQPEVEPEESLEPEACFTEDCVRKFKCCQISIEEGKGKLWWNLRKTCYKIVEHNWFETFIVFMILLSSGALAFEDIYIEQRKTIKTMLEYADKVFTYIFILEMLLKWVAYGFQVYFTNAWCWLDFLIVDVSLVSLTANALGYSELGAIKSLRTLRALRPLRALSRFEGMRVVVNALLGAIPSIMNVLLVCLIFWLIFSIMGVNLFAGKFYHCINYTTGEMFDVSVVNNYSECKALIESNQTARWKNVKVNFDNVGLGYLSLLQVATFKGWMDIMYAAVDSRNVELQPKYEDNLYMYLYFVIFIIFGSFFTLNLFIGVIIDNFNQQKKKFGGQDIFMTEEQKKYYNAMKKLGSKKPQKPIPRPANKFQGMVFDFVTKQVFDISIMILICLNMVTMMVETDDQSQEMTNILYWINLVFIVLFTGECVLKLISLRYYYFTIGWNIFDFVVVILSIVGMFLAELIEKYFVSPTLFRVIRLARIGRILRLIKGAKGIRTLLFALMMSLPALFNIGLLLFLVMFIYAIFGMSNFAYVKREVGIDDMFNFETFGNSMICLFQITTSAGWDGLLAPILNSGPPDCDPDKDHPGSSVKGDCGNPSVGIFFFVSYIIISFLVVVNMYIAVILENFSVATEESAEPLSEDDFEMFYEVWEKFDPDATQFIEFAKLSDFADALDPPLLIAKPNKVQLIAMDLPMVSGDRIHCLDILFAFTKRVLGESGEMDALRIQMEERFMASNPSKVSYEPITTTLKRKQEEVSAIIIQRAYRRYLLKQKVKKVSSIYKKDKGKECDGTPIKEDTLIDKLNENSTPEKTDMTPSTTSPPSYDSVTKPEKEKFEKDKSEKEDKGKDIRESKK

[2] = target: T1, Sodium channel protein type 2 subunit alpha; experiment: Inhibition of human Nav1.2 expressed in HEK293 cells at -120 mv holding potential measured after 5 mins by whole cell voltage clamp electrophysiological analysis; assay type: cell-based
Target sequence in this assay (Q99250 whole entry): as the sequence (Q99250 whole entry, looked up) above

[3] = target: Sodium channel protein type 1 subunit alpha (Homo sapiens) (UniProt P35498); experiment: Inhibition of human Nav1.1 expressed in HEK293 cells assessed as test to control ratio at 0.1 uM by whole cell voltage clamp electrophysiological analysis; assay type: cell-based
[4] = target: Sodium channel protein type 8 subunit alpha (Homo sapiens) (UniProt Q9UQD0); experiment: Inhibition of human Nav1.6 expressed in CHO cells assessed as test to control ratio at 1 uM by whole cell voltage clamp electrophysiological analysis; assay type: cell-based
Chain of Sodium channel protein type 8 subunit alpha (Homo sapiens) (Q9UQD0 whole entry, looked up): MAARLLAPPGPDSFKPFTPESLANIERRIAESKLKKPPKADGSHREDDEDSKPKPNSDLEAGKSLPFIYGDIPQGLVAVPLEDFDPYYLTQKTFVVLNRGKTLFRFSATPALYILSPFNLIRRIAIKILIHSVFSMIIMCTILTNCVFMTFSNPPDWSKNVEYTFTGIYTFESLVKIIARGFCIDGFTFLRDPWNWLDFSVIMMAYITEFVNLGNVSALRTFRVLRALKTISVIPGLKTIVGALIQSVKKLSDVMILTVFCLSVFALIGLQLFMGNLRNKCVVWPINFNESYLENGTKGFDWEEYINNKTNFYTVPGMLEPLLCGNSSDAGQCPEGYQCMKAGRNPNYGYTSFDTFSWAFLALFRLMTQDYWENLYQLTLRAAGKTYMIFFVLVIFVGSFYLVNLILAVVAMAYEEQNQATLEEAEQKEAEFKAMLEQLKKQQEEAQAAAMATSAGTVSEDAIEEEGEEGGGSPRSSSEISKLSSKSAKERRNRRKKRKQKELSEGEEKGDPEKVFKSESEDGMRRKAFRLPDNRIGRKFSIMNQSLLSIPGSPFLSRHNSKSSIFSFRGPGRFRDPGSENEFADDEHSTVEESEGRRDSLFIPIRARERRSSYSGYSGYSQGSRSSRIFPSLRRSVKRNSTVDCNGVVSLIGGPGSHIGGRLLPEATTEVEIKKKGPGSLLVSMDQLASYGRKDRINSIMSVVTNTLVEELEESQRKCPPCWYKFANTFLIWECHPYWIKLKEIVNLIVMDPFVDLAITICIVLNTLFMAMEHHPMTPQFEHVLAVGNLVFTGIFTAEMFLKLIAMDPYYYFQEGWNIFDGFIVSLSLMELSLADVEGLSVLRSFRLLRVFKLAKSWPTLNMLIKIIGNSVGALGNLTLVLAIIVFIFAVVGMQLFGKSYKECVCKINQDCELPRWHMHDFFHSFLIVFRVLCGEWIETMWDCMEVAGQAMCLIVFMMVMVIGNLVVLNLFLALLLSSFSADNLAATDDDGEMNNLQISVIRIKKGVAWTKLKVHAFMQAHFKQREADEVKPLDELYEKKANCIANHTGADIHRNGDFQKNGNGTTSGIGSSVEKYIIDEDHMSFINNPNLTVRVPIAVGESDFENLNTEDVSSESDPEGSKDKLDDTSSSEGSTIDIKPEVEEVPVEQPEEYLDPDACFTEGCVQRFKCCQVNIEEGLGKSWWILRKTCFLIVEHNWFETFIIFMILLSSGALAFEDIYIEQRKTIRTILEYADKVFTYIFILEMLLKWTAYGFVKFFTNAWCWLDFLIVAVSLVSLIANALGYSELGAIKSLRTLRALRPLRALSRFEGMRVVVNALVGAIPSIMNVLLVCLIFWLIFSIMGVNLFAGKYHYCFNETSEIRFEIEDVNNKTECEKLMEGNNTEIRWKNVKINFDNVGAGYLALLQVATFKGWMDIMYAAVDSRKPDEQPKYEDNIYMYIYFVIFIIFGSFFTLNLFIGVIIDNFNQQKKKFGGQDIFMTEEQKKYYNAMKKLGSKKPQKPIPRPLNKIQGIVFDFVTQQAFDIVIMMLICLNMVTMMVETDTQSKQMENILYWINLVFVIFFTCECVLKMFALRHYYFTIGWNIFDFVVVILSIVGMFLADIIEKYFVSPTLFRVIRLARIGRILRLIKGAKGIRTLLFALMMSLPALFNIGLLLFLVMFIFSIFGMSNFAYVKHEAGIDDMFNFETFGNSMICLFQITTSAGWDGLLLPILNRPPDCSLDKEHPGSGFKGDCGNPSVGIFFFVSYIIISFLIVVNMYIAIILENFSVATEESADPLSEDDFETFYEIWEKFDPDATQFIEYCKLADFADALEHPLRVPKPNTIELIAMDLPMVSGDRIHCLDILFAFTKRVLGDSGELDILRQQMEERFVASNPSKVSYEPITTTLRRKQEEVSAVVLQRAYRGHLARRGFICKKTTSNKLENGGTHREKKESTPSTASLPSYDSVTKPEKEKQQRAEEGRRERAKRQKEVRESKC

[5] = Tmax in male ICR mouse at 20 mg/kg, po measured after 24 hrs by LC-MS/MS analysis; assay type: ADME, organism-based; conditions: in vivo
[6] = Cmax in male ICR mouse at 20 mg/kg, po measured after 24 hrs by LC-MS/MS analysis; assay type: ADME, organism-based; conditions: in vivo
[7] = Half-life in male ICR mouse at 20 mg/kg, po measured after 24 hrs by LC-MS/MS analysis; assay type: ADME, organism-based; conditions: in vivo
[8] = Tmax in male ICR mouse at 10 mg/kg, ip measured after 24 hrs by LC-MS/MS analysis; assay type: ADME, organism-based; conditions: in vivo
[9] = Bioavailability in male ICR mouse at 10 mg/kg, ip measured after 24 hrs by LC-MS/MS analysis; assay type: ADME, organism-based; conditions: in vivo
[10] = MRT (0 to infinity) in male ICR mouse at 1 mg/kg, iv measured after 24 hrs by LC-MS/MS analysis; assay type: ADME, organism-based; conditions: in vivo
[11] = Drug concentration in male ICR mouse brain at 20 mg/kg, po measured after 0.25 hrs by LC-MS/MS analysis; assay type: ADME, organism-based; conditions: read-out: Ct
[12] = Drug concentration in male ICR mouse brain at 10 mg/kg, ip measured after 0.25 hrs by LC-MS/MS analysis; assay type: ADME, organism-based; conditions: read-out: Ct
[13] = Drug concentration in male ICR mouse cerebrospinal fluid at 20 mg/kg, po measured after 0.25 hrs by LC-MS/MS analysis; assay type: ADME, organism-based; conditions: read-out: Ct
Mus musculus [14] = experiment: Antiepileptic activity in MES-induced seizure male ICR mouse model assessed as protection against tonic hind limb extension at 2 mg/kg, ip measured after 30 mins relative to control; assay type: functional; conditions: 0.5 h
Mus musculus [15] = experiment: Antiepileptic activity in MES-induced seizure male ICR mouse model assessed as protection against tonic hind limb extension administered intraperitoneally for 30 mins; assay type: functional; conditions: 0.5 h, route ip
Mus musculus [16] = experiment: Antiepileptic activity in 6 Hz(32 mA)-induced seizure male C57BL mouse model assessed as protection against seizure at 50 mg/kg, ip administered for 30 mins by epilepsy test; assay type: functional; conditions: 0.5 h
[17] = Neurotoxicity in male ICR mouse administered intraperitoneally for 30 mins; assay type: toxicity; conditions: in vivo, route ip

`COc1cccc(-c2cc(N3CCCc4ccccc4C3)nc(N)n2)c1` showed a T/C [1] of 0.03, an IC50 [2] of 11 µM and a T/C [3] of 0.65. For the same compound, the T/C [4] was 0.06, the Tmax [5] was 15 min and the Cmax [6] was 63.4 ng/mL. For the same compound, the half-life [7] was 82.8 min, the Tmax [8] was 7.2 min and the bioavailability [9] was 43%. The MRT inf [10] was 33.6 min, the concentration at 0.25 h [11] was 646 ng/g and the concentration at 0.25 h [12] was 1900 ng/g. It also gave a concentration at 0.25 h [13] of 22.1 ng/g, an Activity (Mus musculus [14]) of 25% and an ED50 (Mus musculus [15]) of 3.2 mg/kg. It also gave an Activity (Mus musculus [16]) of 0% and a TD50 at 0.5 h [17] of 26.1 mg/kg.
